Earlier results on one compound are cited in patent US10828380B2, “Conjugate of polysarcosine and NIR contrast agent for photoacoustic imaging” (CANON KABUSHIKI KAISHA, priority 2015, dated 2020).

In the case of `CC1(C)C(/C=C/C=C/C=C/C=C2/N(CCCCS(=O)(=O)[O-])c3ccc4ccccc4c3C2(C)C)=[N+](CCCCS(=O)(=O)[O-])c2ccc3ccccc3c21.[Na+]` [ICG, indocyanine green], the half-life in blood entry is “about several minutes”.
